Data as given in patent publication US11377442B2, “Small molecule agonists and antagonists of NR2F6 activity” (ZANDER THERAPEUTICS, INC., priority 2016, dated 2022).
Where two headings read alike, the source gives them in different places.

Columns and labels:
Type in all cases: cell-based
Renilla [1] = experiment: Renilla signal, LBD, cmpd/DMSO (NR2F6 LBD transfected cells)
NR2F6 = target: T1, NR2F6 (Homo sapiens, UniProt P10588); experiment: NR2F6 agonist screening, Firefly signal cmpd/DMSO
T1 construct: expressed in transfected cells; also transient transfection
T1 sequence (P10588 1-404): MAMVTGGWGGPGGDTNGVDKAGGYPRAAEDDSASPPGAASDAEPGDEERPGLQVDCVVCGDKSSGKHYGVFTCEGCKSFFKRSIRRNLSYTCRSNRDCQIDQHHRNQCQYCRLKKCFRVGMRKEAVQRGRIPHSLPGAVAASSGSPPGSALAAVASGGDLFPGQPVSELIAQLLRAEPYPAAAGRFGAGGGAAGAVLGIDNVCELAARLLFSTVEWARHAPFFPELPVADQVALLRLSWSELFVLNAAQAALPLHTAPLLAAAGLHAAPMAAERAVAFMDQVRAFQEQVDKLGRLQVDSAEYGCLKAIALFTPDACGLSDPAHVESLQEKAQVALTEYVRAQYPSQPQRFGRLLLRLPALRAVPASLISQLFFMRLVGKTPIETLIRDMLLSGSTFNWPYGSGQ

HEK293 pGL4 = experiment: Firefly_pGL signal, cmpd/DMSO (pGL4 control cells); settings: Homo sapiens
Renilla [2] = experiment: Renilla signal in NR2F6 agonist screening, cmpd/DMSO; settings: Renilla
NR2F6 LBD = target: T2, NR2F6 LBD (Homo sapiens, UniProt P10588); experiment: NR2F6 LBD transient transfection
T2 construct: expressed in transfected cells
T2 sequence (P10588 165-393 limits assumed): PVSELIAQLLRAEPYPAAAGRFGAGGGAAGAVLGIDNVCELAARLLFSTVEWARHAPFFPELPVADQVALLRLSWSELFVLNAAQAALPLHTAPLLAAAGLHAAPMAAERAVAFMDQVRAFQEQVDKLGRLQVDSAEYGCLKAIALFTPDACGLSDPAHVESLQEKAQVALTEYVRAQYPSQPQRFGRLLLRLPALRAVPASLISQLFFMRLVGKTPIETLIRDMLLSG
How it was run: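 LBD-transfected cells treated at 40, 10, 2 and 0.5 μM (4 replicates); cytotoxicity measured in parallel, normalized to DMSO (0%) and zero signal (100%). Higher concentrations excluded where signal loss reflected toxicity.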

[3] = HEK293, 0.5 uM, read-out: Firefly pGL4, cmpd/DMSO (mean)
[4] = HEK293, 2 uM, read-out: Firefly pGL4, cmpd/DMSO (mean)
[5] = HEK293, 10 uM, read-out: Firefly pGL4, cmpd/DMSO (mean)
[6] = HEK293, 40 uM, read-out: Firefly pGL4, cmpd/DMSO (mean)
[7] = HEK293, pGL4, 1% FBS, 0.5 uM, read-out: Firefly, pGL4, 1% FBS, cmpd/DMSO (mean)
[8] = HEK293, pGL4, 1% FBS, 2 uM, read-out: Firefly, pGL4, 1% FBS, cmpd/DMSO (mean)
[9] = HEK293, pGL4, 1% FBS, 10 uM, read-out: Firefly, pGL4, 1% FBS, cmpd/DMSO (mean)
[10] = HEK293, pGL4, 1% FBS, 40 uM, read-out: Firefly, pGL4, 1% FBS, cmpd/DMSO (mean)
[11] = HEK293, pGL4, 10% FBS, 0.5 uM, read-out: Firefly, pGL4, 10% FBS, cmpd/DMSO (mean)
[12] = HEK293, pGL4, 10% FBS, 2 uM, read-out: Firefly, pGL4, 10% FBS, cmpd/DMSO (mean)
[13] = HEK293, pGL4, 10% FBS, 10 uM, read-out: Firefly, pGL4, 10% FBS, cmpd/DMSO (mean)
[14] = HEK293, pGL4, 10% FBS, 40 uM, read-out: Firefly, pGL4, 10% FBS, cmpd/DMSO (mean)
[15] = read-out: Renilla F4, cmpd/DMSO (mean)
[16] = F4, 1% FBS, read-out: Renilla, F4, 1% FBS, cmpd/DMSO (mean)
[17] = F4, 10% FBS, read-out: Renilla, F4, 10% FBS, cmpd/DMSO (mean)

CC(C)OCCCN[C@H]1CS(=O)(=O)C[C@@H]1S(=O)(=O)c1ccc(Cl)cc1 [Compound D138]
Renilla LBD, cmpd/DMSO (mean) (Renilla [1]; 0.5 uM): 0.9 | Renilla LBD, cmpd/DMSO (mean) (Renilla [1]; 2 uM): 1.1 | Renilla LBD, cmpd/DMSO (mean) (Renilla [1]; 10 uM): 0.9 | Renilla LBD, cmpd/DMSO (mean) (Renilla [1]; 40 uM): 0.3 | Firefly F4, cmpd/DMSO (mean) (NR2F6; 0.5 uM): 1.0 | Firefly F4, cmpd/DMSO (mean) (NR2F6; 2 uM): 1.1 | Firefly F4, cmpd/DMSO (mean) (NR2F6; 10 uM): 2.6 | Firefly F4, cmpd/DMSO (mean) (NR2F6; 40 uM): 1.7 | F4, Firefly/Renilla for S/B(F4) > 3 (NR2F6; 1% FBS, 10 uM): 2.2 | Firefly, F4/pGL4 for S/B(F4) > 3 (NR2F6; 1% FBS, 10 uM): 2.7 | F4, Firefly/Renilla for S/B(F4) > 3 (NR2F6; 1% FBS, 40 uM): 1.1 | Firefly, F4/pGL4 for S/B(F4) > 3 (NR2F6; 1% FBS, 40 uM): 1.9 | F4, Firefly/Renilla for S/B(F4) > 3 (NR2F6; 10% FBS, 10 uM): 1.6 | Firefly, F4/pGL4 for S/B(F4) > 3 (NR2F6; 10% FBS, 10 uM): 1.8 | F4, Firefly/Renilla for S/B(F4) > 3 (NR2F6; 10% FBS, 40 uM): 3.2 | Firefly, F4/pGL4 for S/B(F4) > 3 (NR2F6; 10% FBS, 40 uM): 3.2 | Firefly, F4, 1% FBS, cmpd/DMSO (mean) (NR2F6; 1% FBS, 0.5 uM): 0.8 | Firefly, F4, 1% FBS, cmpd/DMSO (mean) (NR2F6; 1% FBS, 2 uM): 1.9 | Firefly, F4, 1% FBS, cmpd/DMSO (mean) (NR2F6; 1% FBS, 10 uM): 4.2 | Firefly, F4, 1% FBS, cmpd/DMSO (mean) (NR2F6; 1% FBS, 40 uM): 3.3 | Firefly, F4, 10% FBS, cmpd/DMSO (mean) (NR2F6; 10% FBS, 0.5 uM): 1.8 | Firefly, F4, 10% FBS, cmpd/DMSO (mean) (NR2F6; 10% FBS, 2 uM): 1.3 | Firefly, F4, 10% FBS, cmpd/DMSO (mean) (NR2F6; 10% FBS, 10 uM): 3.1 | Firefly, F4, 10% FBS, cmpd/DMSO (mean) (NR2F6; 10% FBS, 40 uM): 12 | fold induction at 0.5 µM (HEK293 pGL4; [3]): 0.9 | fold induction at 2 µM (HEK293 pGL4; [4]): 0.9 | fold induction at 10 µM (HEK293 pGL4; [5]): 1.5 | fold induction at 40 µM (HEK293 pGL4; [6]): 1.5 | fold induction at 0.5 µM (HEK293 pGL4; [7]): 1 | fold induction at 2 µM (HEK293 pGL4; [8]): 1 | fold induction at 10 µM (HEK293 pGL4; [9]): 1.6 | fold induction at 40 µM (HEK293 pGL4; [10]): 1.7 | fold induction at 0.5 µM (HEK293 pGL4; [11]): 1.1 | fold induction at 2 µM (HEK293 pGL4; [12]): 1 | fold induction at 10 µM (HEK293 pGL4; [13]): 1.7 | fold induction at 40 µM (HEK293 pGL4; [14]): 3.6 | fold induction at 0.5 µM (Renilla [2]; [15]): 0.8 | fold induction at 2 µM (Renilla [2]; [15]): 1 | fold induction at 10 µM (Renilla [2]; [15]): 1.2 | fold induction at 40 µM (Renilla [2]; [15]): 2.3 | fold induction at 0.5 µM (Renilla [2]; [16]): 1.3 | fold induction at 2 µM (Renilla [2]; [16]): 1.4 | fold induction at 10 µM (Renilla [2]; [16]): 1.9 | fold induction at 40 µM (Renilla [2]; [16]): 2.9 | fold induction at 0.5 µM (Renilla [2]; [17]): 1.4 | fold induction at 2 µM (Renilla [2]; [17]): 1.4 | fold induction at 10 µM (Renilla [2]; [17]): 2 | fold induction at 40 µM (Renilla [2]; [17]): 3.6 | Firefly LBD, cmpd/DMSO (mean) (NR2F6 LBD; 0.5 uM): 1.3 | Firefly LBD, cmpd/DMSO (mean) (NR2F6 LBD; 2 uM): 1.8 | Firefly LBD, cmpd/DMSO (mean) (NR2F6 LBD; 10 uM): 3.7 | Firefly LBD, cmpd/DMSO (mean) (NR2F6 LBD; 40 uM): 0.4

O=S1(=O)C[C@H](NCCCc2ccccc2)[C@@H](S(=O)(=O)c2ccc(Cl)cc2)C1 [Compound D137]
Renilla LBD, cmpd/DMSO (mean) (Renilla [1]; 0.5 uM): 1.0 | Renilla LBD, cmpd/DMSO (mean) (Renilla [1]; 2 uM): 1.0 | Renilla LBD, cmpd/DMSO (mean) (Renilla [1]; 10 uM): 0.8 | Renilla LBD, cmpd/DMSO (mean) (Renilla [1]; 40 uM): 0.4 | Firefly F4, cmpd/DMSO (mean) (NR2F6; 0.5 uM): 1.1 | Firefly F4, cmpd/DMSO (mean) (NR2F6; 2 uM): 1.3 | Firefly F4, cmpd/DMSO (mean) (NR2F6; 10 uM): 2.0 | Firefly F4, cmpd/DMSO (mean) (NR2F6; 40 uM): 0.6 | F4, Firefly/Renilla for S/B(F4) > 3 (NR2F6; 1% FBS, 10 uM): 1.9 | Firefly, F4/pGL4 for S/B(F4) > 3 (NR2F6; 1% FBS, 10 uM): 2.7 | F4, Firefly/Renilla for S/B(F4) > 3 (NR2F6; 1% FBS, 40 uM): 1.0 | Firefly, F4/pGL4 for S/B(F4) > 3 (NR2F6; 1% FBS, 40 uM): 2.4 | F4, Firefly/Renilla for S/B(F4) > 3 (NR2F6; 10% FBS, 10 uM): 2.2 | Firefly, F4/pGL4 for S/B(F4) > 3 (NR2F6; 10% FBS, 10 uM): 2.2 | F4, Firefly/Renilla for S/B(F4) > 3 (NR2F6; 10% FBS, 40 uM): 3.3 | Firefly, F4/pGL4 for S/B(F4) > 3 (NR2F6; 10% FBS, 40 uM): 3.1 | Firefly, F4, 1% FBS, cmpd/DMSO (mean) (NR2F6; 1% FBS, 0.5 uM): 1.2 | Firefly, F4, 1% FBS, cmpd/DMSO (mean) (NR2F6; 1% FBS, 2 uM): 2.2 | Firefly, F4, 1% FBS, cmpd/DMSO (mean) (NR2F6; 1% FBS, 10 uM): 3.9 | Firefly, F4, 1% FBS, cmpd/DMSO (mean) (NR2F6; 1% FBS, 40 uM): 3.4 | Firefly, F4, 10% FBS, cmpd/DMSO (mean) (NR2F6; 10% FBS, 0.5 uM): 0.9 | Firefly, F4, 10% FBS, cmpd/DMSO (mean) (NR2F6; 10% FBS, 2 uM): 1.4 | Firefly, F4, 10% FBS, cmpd/DMSO (mean) (NR2F6; 10% FBS, 10 uM): 4.6 | Firefly, F4, 10% FBS, cmpd/DMSO (mean) (NR2F6; 10% FBS, 40 uM): 13 | fold induction at 0.5 µM (HEK293 pGL4; [3]): 0.8 | fold induction at 2 µM (HEK293 pGL4; [4]): 1.2 | fold induction at 10 µM (HEK293 pGL4; [5]): 1.5 | fold induction at 40 µM (HEK293 pGL4; [6]): 1.5 | fold induction at 0.5 µM (HEK293 pGL4; [7]): 1 | fold induction at 2 µM (HEK293 pGL4; [8]): 1 | fold induction at 10 µM (HEK293 pGL4; [9]): 1.5 | fold induction at 40 µM (HEK293 pGL4; [10]): 1.5 | fold induction at 0.5 µM (HEK293 pGL4; [11]): 0.7 | fold induction at 2 µM (HEK293 pGL4; [12]): 1.1 | fold induction at 10 µM (HEK293 pGL4; [13]): 2.1 | fold induction at 40 µM (HEK293 pGL4; [14]): 4.3 | fold induction at 0.5 µM (Renilla [2]; [15]): 1.1 | fold induction at 2 µM (Renilla [2]; [15]): 1.1 | fold induction at 10 µM (Renilla [2]; [15]): 1.8 | fold induction at 40 µM (Renilla [2]; [15]): 2.6 | fold induction at 0.5 µM (Renilla [2]; [16]): 1 | fold induction at 2 µM (Renilla [2]; [16]): 1.3 | fold induction at 10 µM (Renilla [2]; [16]): 2.1 | fold induction at 40 µM (Renilla [2]; [16]): 3.5 | fold induction at 0.5 µM (Renilla [2]; [17]): 1.2 | fold induction at 2 µM (Renilla [2]; [17]): 1.4 | fold induction at 10 µM (Renilla [2]; [17]): 2.1 | fold induction at 40 µM (Renilla [2]; [17]): 4 | Firefly LBD, cmpd/DMSO (mean) (NR2F6 LBD; 0.5 uM): 1.1 | Firefly LBD, cmpd/DMSO (mean) (NR2F6 LBD; 2 uM): 2.0 | Firefly LBD, cmpd/DMSO (mean) (NR2F6 LBD; 10 uM): 3.2 | Firefly LBD, cmpd/DMSO (mean) (NR2F6 LBD; 40 uM): 0.4
